# Reference: patent US20250145585A1, “HETEROCYCLIC INHIBITORS OF IGF-1R FOR TREATMENT OF DISEASE” (HORIZON THERAPEUTICS IRELAND DAC, priority 2023, published 2025)
# Molecular target: T1, IGF-1R (Homo sapiens, UniProt P08069)
# T1 construct: expressed in transfected cells
# Assay: Example B-2: IGF-1R Assay (PathHunter cell lines, EC80 agonist challenge, chemiluminescent detection)
# Type: cell-based
# Conditions: PathHunter cells, compound 60 minutes at 37° C., EC80 agonist 3 hours; read-out: IC50, Biological Activity against IGF-1R (Table B2)
# Protocol: PathHunter cell lines were expanded from freezer stocks according to standard procedures. Cells were seeded in a total volume of 20 μL into white walled, 384-well microplates and incubated for the appropriate time prior to testing.
# Cells are pre-incubated with compound followed by EC80 agonist challenge as follows: • R. 1. Intermediate dilution of sample stocks was performed to generate 5× sample in assay buffer. • 2. 5 μL of 5× sample was added to cells and incubated at 37° C. for 60 minutes. Vehicle concentration was 1%. • 3. 5 IL of 6× EC80 agonist in assay buffer was added to the cells and incubated at room temperature for 3 hours.
# Assay signal was generated through a single addition of 12.5 or 15 μL (50% v/v) of PathHunter Detection reagent cocktail for agonist and antagonist assays respectively, followed by a one hour incubation at room temperature. Microplates were read following signal generation with a PerkinElmer Envision™ instrument for chemilumine-scent signal detection.
# Compound activity was analyzed using CBIS data analysis suite (ChemInnovation, CA). Percentage inhibition was calculated using the following formula: % Inhibition=100%×(1−(mean RLU of test sample−mean RLU of vehicle control)/(mean RLU of EC80 control−mean RLU of vehicle control)). The activity for representative examples of the invention is shown in the following table, wherein A: IC50≤500 nM; B: 500 nM<IC50≤2 μM; C: 2 μM<IC50≤10 μM; D: IC50>10 μM.
# T1 sequence (P08069 31-1367): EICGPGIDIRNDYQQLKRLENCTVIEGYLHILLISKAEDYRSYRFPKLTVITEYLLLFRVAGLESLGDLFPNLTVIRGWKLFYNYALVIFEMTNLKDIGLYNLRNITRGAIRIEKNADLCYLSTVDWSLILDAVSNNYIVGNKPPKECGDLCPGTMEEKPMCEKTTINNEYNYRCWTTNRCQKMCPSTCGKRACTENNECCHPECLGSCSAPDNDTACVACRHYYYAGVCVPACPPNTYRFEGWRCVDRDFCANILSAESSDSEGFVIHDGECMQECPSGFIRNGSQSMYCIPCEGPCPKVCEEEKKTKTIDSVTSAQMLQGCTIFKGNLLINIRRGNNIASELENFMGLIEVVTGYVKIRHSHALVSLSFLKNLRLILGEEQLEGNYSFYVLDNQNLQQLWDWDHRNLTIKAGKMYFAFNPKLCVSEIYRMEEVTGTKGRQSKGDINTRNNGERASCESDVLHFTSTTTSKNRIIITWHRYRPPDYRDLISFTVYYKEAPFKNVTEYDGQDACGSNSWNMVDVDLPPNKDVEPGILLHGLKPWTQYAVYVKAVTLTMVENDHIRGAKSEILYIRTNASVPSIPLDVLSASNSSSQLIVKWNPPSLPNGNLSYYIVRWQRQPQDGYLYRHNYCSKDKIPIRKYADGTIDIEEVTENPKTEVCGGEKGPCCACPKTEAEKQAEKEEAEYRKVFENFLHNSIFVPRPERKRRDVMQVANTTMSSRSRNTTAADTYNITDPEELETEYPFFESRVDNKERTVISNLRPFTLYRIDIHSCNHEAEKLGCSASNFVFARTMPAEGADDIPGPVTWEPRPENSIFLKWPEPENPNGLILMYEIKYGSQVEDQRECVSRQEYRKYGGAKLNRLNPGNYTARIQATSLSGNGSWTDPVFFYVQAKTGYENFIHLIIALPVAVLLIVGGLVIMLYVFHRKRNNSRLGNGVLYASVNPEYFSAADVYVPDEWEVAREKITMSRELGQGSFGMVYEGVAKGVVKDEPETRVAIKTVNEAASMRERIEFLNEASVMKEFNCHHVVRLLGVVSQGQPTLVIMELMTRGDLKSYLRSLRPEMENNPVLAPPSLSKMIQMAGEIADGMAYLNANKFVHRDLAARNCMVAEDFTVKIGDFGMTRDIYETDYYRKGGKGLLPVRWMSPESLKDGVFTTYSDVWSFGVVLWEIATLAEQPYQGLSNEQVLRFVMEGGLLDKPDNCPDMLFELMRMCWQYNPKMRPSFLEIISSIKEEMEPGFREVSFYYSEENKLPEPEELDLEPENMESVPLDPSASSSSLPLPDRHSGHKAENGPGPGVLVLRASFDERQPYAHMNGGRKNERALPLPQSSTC
row,IC50 [nM],Structure (SMILES)
1,≤ 500,"CC1(C)C(=O)N(c2ccc3c(c2)N(S(C)(=O)=O)CC32CCC2)C(=O)N1Cc1ccnc(NCC2CCOC2)c1 (stereo not shown) [Compound 226, 5,5-dimethyl-3-(1′-(methylsulfonyl)spiro[cyclobutane-1,3′-indolin]-6′-yl)-1-((2-(((tetrahydrofuran-3-yl)methyl)amino)pyridin-4-yl)methyl)imidazolidine-2,4-dione]"
2,≤ 500,"CC(C)(C)c1ccc(N2C(=O)N(Cc3ccnc4c3CC(=O)N4)C(C)(C)C2=O)cc1 [Compound 36, 3-(4-(tert-butyl)phenyl)-5,5-dimethyl-1-((2-oxo-2,3-dihydro-1H-pyrrolo[2,3-b]pyridin-4-yl)methyl)imidazolidine-2,4-dione]"
3,≤ 500,"C[C@H]1COc2c(CN3C(=O)N(c4ccc(C5(C(F)(F)F)CC5)cc4)C(=O)C3(C)C)ccnc2N1 [Compound 26, (S)-5,5-dimethyl-1-((3-methyl-3,4-dihydro-2H-pyrido[3,2-b][1,4]oxazin-8-yl)methyl)-3-(4-(1-(trifluoromethyl)cyclopropyl)phenyl) imidazolidine-2,4-dione]"
4,≤ 500,"CN(C)CC(=O)Nc1cc(N2C(=O)N(Cc3ccnc(N[C@H]4[C@@H]5COC[C@@H]54)c3)C(C)(C)C2=O)ccc1OC(F)(F)F [Compound 281, N-(5-(3-((2-(((1R,5S,6r)-3-oxabicyclo[3.1.0]hexan-6-yl)amino)pyridin-4-yl)methyl)-4,4-dimethyl-2,5-dioxoimidazolidin-1-yl)-2-(trifluoromethoxy)phenyl)-2-(dimethylamino)acetamide]"
5,> 10000,"CC1(C)C(=O)N(c2ccc(S(C)(=O)=O)cc2)C(=O)N1Cc1ccnc(N[C@H]2[C@@H]3COC[C@@H]32)c1 [Compound 337, 1-((2-(((1R,SS,6r)-3-oxabicyclo[3.1.0]hexan-6-yl)amino)pyridin-4-yl)methyl)-5,5-dimethyl-3-(4-(methylsulfonyl)phenyl) imidazolidine-2,4-dione]"
6,2000 to 10000,"CN1CCC(Nc2cc(CN3C(=O)N(c4ccc(S(=O)(=O)C(F)(F)F)cc4)C(=O)C3(C)C)ccn2)CC1=O (stereo not shown) [Compound 326, 5,5-dimethyl-1-((2-((1-methyl-2-oxopiperidin-4-yl)amino)pyridin-4-yl)methyl)-3-(4-((trifluoromethyl)sulfonyl)phenyl) imidazolidine-2,4-dione]"
7,≤ 500,"COC[C@@H](C)Nc1cc(CN2C(=O)N(c3ccc4c(c3)N(S(C)(=O)=O)CC43CC3)C(=O)C2(C)C)ccn1 [Compound 213, (R)-1-((2-((1-methoxypropan-2-yl)amino)pyridin-4-yl)methyl)-5,5-dimethyl-3-(1′-(methylsulfonyl)spiro[cyclopropane-1,3′-indolin]-6′-yl)imidazolidine-2,4-dione]"
8,≤ 500,"CC1(C)C(=O)N(c2ccc3c(c2)N(C(=O)C2CC2)CC32CC2)C(=O)N1Cc1ccnc(N[C@H]2[C@@H]3COC[C@@H]32)c1 [Compound 231, 1-((2-((1R,5S,6r)-3-oxabicyclo[3.1.0]hexan-6-ylamino)pyridin-4-yl)methyl)-3-(1′-(cyclopropanecarbonyl)spiro[cyclopropane-1,3′-indolin]-6′-yl)-5,5-dimethylimidazolidine-2,4-dione]"
9,2000 to 10000,"CN1CCC(Nc2cc(CN3C(=O)N(c4ccc(S(=O)(=O)C(F)(F)F)cc4)C(=O)C3(C)C)ccn2)C1=O (stereo not shown) [Compound 332, 5,5-dimethyl-1-((2-((1-methyl-2-oxopyrrolidin-3-yl)amino)pyridin-4-yl)methyl)-3-(4-((trifluoromethyl)sulfonyl)phenyl) imidazolidine-2,4-dione]"
10,≤ 500,"CC1(C)CN(C(=O)C2CC2)c2cc(N3C(=O)N(Cc4ccnc5c4CC(=O)N5)C(C)(C)C3=O)ccc21 [Compound 39, 3-(1-(cyclopropanecarbonyl)-3,3-dimethylindolin-6-yl)-5,5-dimethyl-1-((2-oxo-2,3-dihydro-1H-pyrrolo[2,3-b]pyridin-4-yl)methyl)imidazolidine-2,4-dione]"
11,2000 to 10000,"CC(C)Nc1cc(CN2C(=O)N(c3cnc4c(c3)N(C)CC4(C)C)C(=O)C2(C)C)ccn1 [Compound 197, 1-((2-(isopropylamino)pyridin-4-yl)methyl)-5,5-dimethyl-3-(1,3,3-trimethyl-2,3-dihydro-1H-pyrrolo[3,2-b]pyridin-6-yl)imidazolidine-2,4-dione]"
12,≤ 500,"CC1(C)Cc2ccc(N3C(=O)N(Cc4ccnc(N[C@H]5[C@@H]6COC[C@@H]65)c4)C(C)(C)C3=O)cc2O1 [Compound 249, 1-((2-(((1R,5S,6r)-3-oxabicyclo[3.1.0]hexan-6-yl)amino)pyridin-4-yl)methyl)-3-(2,2-dimethyl-2,3-dihydrobenzofuran-6-yl)-5,5-dimethylimidazolidine-2,4-dione]"
13,≤ 500,"CC1(C)C(=O)N(c2ccc3c(c2)N(C(=O)C2CC2)CC32CC2)C(=O)N1Cc1ccnc2c1CC(=O)N2 [Compound 46, 3-(1′-(cyclopropanecarbonyl)spiro[cyclopropane-1,3′-indolin]-6′-yl)-5,5-dimethyl-1-((2-oxo-2,3-dihydro-1H-pyrrolo[2,3-b]pyridin-4-yl)methyl)imidazolidine-2,4-dione]"
14,≤ 500,"Cn1cncc1CNc1cc(CN2C(=O)N(c3ccc(C4(C(F)(F)F)CC4)cc3)C(=O)C2(C)C)ccn1 [Compound 176, 5,5-dimethyl-1-((2-(((1-methyl-1H-imidazol-5-yl)methyl)amino)pyridin-4-yl)methyl)-3-(4-(1-(trifluoromethyl)cyclopropyl)phenyl) imidazolidine-2,4-dione]"
15,> 10000,"CC1(C)C(=O)N(c2ccc3c(c2)N(S(C)(=O)=O)CC3)C(=O)N1Cc1ccnc(N[C@H]2[C@@H]3COC[C@@H]32)c1 [Compound 251, 1-((2-(((1R,5S,6r)-3-oxabicyclo[3.1.0]hexan-6-yl)amino)pyridin-4-yl)methyl)-5,5-dimethyl-3-(1-(methylsulfonyl)indolin-6-yl)imidazolidine-2,4-dione]"
16,500 to 2000,"C[C@@H](Nc1cc(CN2C(=O)N(c3ccc(S(=O)(=O)C(F)(F)F)cc3)C(=O)C2(C)C)ccn1)[C@@H]1CCCO1 [Compound 341, 5,5-dimethyl-1-((2-(((R)-1-((S)-tetrahydrofuran-2-yl)ethyl)amino)pyridin-4-yl)methyl)-3-(4-((trifluoromethyl)sulfonyl)phenyl) imidazolidine-2,4-dione]"
17,500 to 2000,"CN(C)CCOc1cc(N2C(=O)N(Cc3ccnc4c3CC(=O)N4)C(C)(C)C2=O)ccc1OC(F)(F)F [Compound 284, 3-(3-(2-(dimethylamino)ethoxy)-4-(trifluoromethoxy)phenyl)-5,5-dimethyl-1-((2-oxo-2,3-dihydro-1H-pyrrolo[2,3-b]pyridin-4-yl)methyl)imidazolidine-2,4-dione]"
18,> 10000,"Cn1nc(C(C)(C)C)cc1N1C(=O)N(Cc2ccnc(N[C@H]3CCOC3)c2)C(C)(C)C1=O [Compound 261, (S)-3-(3-(tert-butyl)-1-methyl-1H-pyrazol-5-yl)-5,5-dimethyl-1-((2-((tetrahydrofuran-3-yl)amino)pyridin-4-yl)methyl)imidazolidine-2,4-dione]"
19,2000 to 10000,"CC1(C)C(=O)N(c2ccc3c(c2)OC(F)(F)C32CC2)C(=O)N1Cc1ccnc2c1CC(=O)N2 [Compound 70, 3-(2,2-difluoro-2H-spiro[benzofuran-3,1′-cyclopropan]-6-yl)-5,5-dimethyl-1-((2-oxo-2,3-dihydro-1H-pyrrolo[2,3-b]pyridin-4-yl)methyl)imidazolidine-2,4-dione]"
